Here are results for nine compounds from US20170094972A1, “Compounds and Compositions Having Knock-Down Activity Against Insect Pests” (priority 2015, published 2017).

Each structure is given as a SMILES string.

One assay has as its system Anopheles stephensi. Kind of assay: 12 well plate knockdown test. The note with it: 1 h, read-out: Anopheles stephensi 1 hour % KD; for pest or weed control at 0.2 ppm: Rate 0.2 PPM; for pest or weed control at 2 ppm: Rate 2 PPM; for pest or weed control at 20 ppm: Rate 20 PPM; for pest or weed control at 200 ppm: Rate 200 PPM. Format: in vivo. Here is the method: (§1) The individual wells of a twelve (12) well tissue culture plates were treated with 100 μl of an ethanol solution containing a test compound at a defined concentration. Once the deposits were dry, five non-blood fed adult female Aedes aegypti or Anopheles stephensi (between two to five day old) were added to each well, and sustained with a 10% sucrose solution in a cotton wool plug. Assessment of the knockdown after 1 hour was carried out. Where multiple replicates of a treatment have been undertaken, the mean of those replicates is reported.

In another assay the test system is Aedes aegypti. The assay is described as follows: 12 well plate knockdown test. Format: in vivo. The note with it: 1 h, read-out: Aedes aegypti 1 hour % KD; for pest or weed control at 0.2 ppm: Rate 0.2 PPM; for pest or weed control at 2 ppm: Rate 2 PPM; for pest or weed control at 20 ppm: Rate 20 PPM; for pest or weed control at 200 ppm: Rate 200 PPM. On the procedure: as §1

Turning to `CC(C)CC(=O)ON(C)C(=O)c1cnccc1C(F)(F)F` [I.10], in the assay on Anopheles stephensi, the pest or weed control at 0.2 ppm was determined as 40%, the pest or weed control at 2 ppm came to 60%, the pest or weed control at 20 ppm turned out to be 100% and the pest or weed control at 200 ppm amounted to 100%. For the same compound, in the assay with Aedes aegypti, the pest or weed control at 0.2 ppm was determined as 100%, the pest or weed control at 2 ppm is 100%, the pest or weed control at 20 ppm was determined as 100% and the pest or weed control at 200 ppm was 100%.
For `CC(C)n1nc(-c2cnccc2C(F)(F)F)oc1=O` [I.7], in the assay with Anopheles stephensi, the pest or weed control at 0.2 ppm came out at 0%, the pest or weed control at 2 ppm came out at 0%, the pest or weed control at 20 ppm is 0% and the pest or weed control at 200 ppm came out at 20%. In the assay on Aedes aegypti, the pest or weed control at 0.2 ppm was 100%, the pest or weed control at 2 ppm was determined as 100%, the pest or weed control at 20 ppm came to 100% and the pest or weed control at 200 ppm stood at 100%.
As for `O=C(NC(=O)c1cnccc1C(F)(F)F)c1cccs1` [I.13], in the assay on Anopheles stephensi, the pest or weed control at 0.2 ppm worked out at 0%, the pest or weed control at 2 ppm was determined as 60%, the pest or weed control at 20 ppm came out at 100% and the pest or weed control at 200 ppm was determined as 100%. Further, in the assay on Aedes aegypti, the pest or weed control at 0.2 ppm stood at 0%, the pest or weed control at 2 ppm stood at 100%, the pest or weed control at 20 ppm was found to be 100% and the pest or weed control at 200 ppm amounted to 100%.
`COCCOC(=O)ON(C(=O)c1cnccc1C(F)(F)F)C(C)C` [I.29]: in the assay on Anopheles stephensi, the pest or weed control at 0.2 ppm worked out at 20%, the pest or weed control at 2 ppm came to 60%, the pest or weed control at 20 ppm stood at 100% and the pest or weed control at 200 ppm came to 100%. Also, in the assay on Aedes aegypti, the pest or weed control at 0.2 ppm was found to be 0%, the pest or weed control at 2 ppm turned out to be 0%, the pest or weed control at 20 ppm was 0% and the pest or weed control at 200 ppm turned out to be 100%.
Turning to `CN(C)C(=O)c1cnccc1C(F)(F)F` [I.4], in the assay on Anopheles stephensi, the pest or weed control at 0.2 ppm worked out at 40%, the pest or weed control at 2 ppm was found to be 100%, the pest or weed control at 20 ppm worked out at 100% and the pest or weed control at 200 ppm was determined as 100%. In the assay on Aedes aegypti, the pest or weed control at 0.2 ppm was 100%, the pest or weed control at 2 ppm stood at 100%, the pest or weed control at 20 ppm came out at 100% and the pest or weed control at 200 ppm is 100%.
Regarding `CN(C)CNC(=O)c1cnccc1C(F)(F)F` [I.6], in the assay on Anopheles stephensi, the pest or weed control at 0.2 ppm was determined as 0%, the pest or weed control at 2 ppm worked out at 20%, the pest or weed control at 20 ppm came out at 40% and the pest or weed control at 200 ppm is 40%. Also, in the assay on Aedes aegypti, the pest or weed control at 0.2 ppm came out at 100%, the pest or weed control at 2 ppm turned out to be 100%, the pest or weed control at 20 ppm turned out to be 100% and the pest or weed control at 200 ppm came out at 100%.
Take `N/C(=N/C(=O)c1cnccc1C(F)(F)F)c1ncccn1` [I.14]: in the assay on Anopheles stephensi, the pest or weed control at 0.2 ppm came out at 40%, the pest or weed control at 2 ppm worked out at 40%, the pest or weed control at 20 ppm was determined as 100% and the pest or weed control at 200 ppm amounted to 100%. In the assay on Aedes aegypti, the pest or weed control at 0.2 ppm came to 0%, the pest or weed control at 2 ppm was found to be 100%, the pest or weed control at 20 ppm is 100% and the pest or weed control at 200 ppm turned out to be 100%.
For `O=c1nc(-c2cnccc2C(F)(F)F)os1` [I.5], in the assay with Anopheles stephensi, the pest or weed control at 0.2 ppm stood at 60%, the pest or weed control at 2 ppm came to 100%, the pest or weed control at 20 ppm turned out to be 100% and the pest or weed control at 200 ppm turned out to be 100%. Besides, in the assay on Aedes aegypti, the pest or weed control at 0.2 ppm came out at 100%, the pest or weed control at 2 ppm is 100%, the pest or weed control at 20 ppm was 100% and the pest or weed control at 200 ppm worked out at 100%.
Turning to `CO/N=C(\C)CNC(=O)c1cnccc1C(F)(F)F` [I.18], in the assay on Anopheles stephensi, the pest or weed control at 0.2 ppm was found to be 0%, the pest or weed control at 2 ppm stood at 0%, the pest or weed control at 20 ppm was determined as 0% and the pest or weed control at 200 ppm was found to be 40%. In addition, in the assay with Aedes aegypti, the pest or weed control at 0.2 ppm came to 40%, the pest or weed control at 2 ppm was determined as 100%, the pest or weed control at 20 ppm was determined as 100% and the pest or weed control at 200 ppm worked out at 100%.
